Measured values reported in ChEMBL document CHEMBL5321233, “Biological activity of 1,2,3-triazole-2-amino-1,4-naphthoquinone derivatives and their evaluation as therapeutic strategy for malaria control” (Eur J Med Chem, 2023).
Calls of active or inactive are those of the source. The calls are words filed in the database; no cut-off is given here.

Assays:
[1] = Acute toxicity in Albino Swiss mouse assessed as change in urine color at 300 mg/kg, po administered as single dose measured after 14 days; format: organism-based; settings: in vivo, 336 h, time 14 day
[2] = Acute toxicity in Albino Swiss mouse assessed as pathological changes in kidney at 300 mg/kg, po administered as single dose measured after 14 days by H and E staining based analysis; format: organism-based; settings: in vivo, 336 h, time 14 day
[3] = Selectivity index, ratio of CC50 for African green monkey Vero cells to IC50 for chloroquine-resistant Plasmodium falciparum W2 infected in human erythrocytes; format: toxicity, cell-based; settings: read-out: Ratio CC50/IC50
Plasmodium falciparum [4] = experiment: Induction of morphological changes in chloroquine-resistant Plasmodium falciparum W2 trophozoites assessed as loss of membrane integrity by TEM analysis; format: functional, organism-based
Plasmodium falciparum [5] = experiment: Induction of morphological changes in chloroquine-resistant Plasmodium falciparum W2 trophozoites assessed as dense cytoplasm with undefined organelles by TEM analysis; format: functional, organism-based
[6] = Acute toxicity in Albino Swiss mouse assessed as change in diarrhea at 300 mg/kg, po administered as single dose measured after 14 days; format: organism-based; settings: in vivo, 336 h, time 14 day
[7] = Acute toxicity in Albino Swiss mouse assessed as change in defecation at 300 mg/kg, po administered as single dose measured after 14 days; format: organism-based; settings: in vivo, 336 h, time 14 day
[8] = Acute toxicity in Albino Swiss mouse assessed as pathological damage in spleen at 300 mg/kg, po administered as single dose measured after 14 days by H and E staining based analysis; format: organism-based; settings: in vivo, 336 h, time 14 day
[9] = Octanol-water partition coefficient, logP of the compound; format: physicochemical
[10] = Acute toxicity in Albino Swiss mouse assessed as behavioural toxicity at 300 mg/kg, po administered as single dose measured after 14 days; format: organism-based; settings: in vivo, 336 h, time 14 day
[11] = Selectivity index, ratio of CC50 for human HepG2 cells to IC50 for chloroquine-resistant Plasmodium falciparum W2 infected in human erythrocytes; format: toxicity, cell-based; settings: read-out: Ratio CC50/IC50
[12] = Acute toxicity in Albino Swiss mouse assessed as change in sensory function at 300 mg/kg, po administered as single dose measured after 14 days; format: organism-based; settings: in vivo, 336 h, time 14 day
Plasmodium falciparum [13] = experiment: Induction of morphological changes in chloroquine-resistant Plasmodium falciparum W2 trophozoites assessed as degraded cytoplasm by TEM analysis relative to control; format: functional
Plasmodium berghei [14] = experiment: Antimalarial activity against Plasmodium berghei ANKA infected in Albino Swiss mouse assessed as reduction in parasitemia at 30 mg/kg, po administered for 4 consecutive days measured after day 7 relative to control; format: functional; parameters: scale not given: the % may be the effect or the level left; settings: time 7 day
[15] = Cytotoxicity against African green monkey Vero cells incubated for 24 hrs by MTT assay; format: toxicity, cell-based; settings: chlorocebus sabaeus
[16] = Acute toxicity in Albino Swiss mouse assessed as animal mortality at 300 mg/kg, po administered as single dose measured after 14 days; format: organism-based; settings: in vivo, 336 h, time 14 day
[17] = Acute toxicity in Albino Swiss mouse assessed as escape reaction at 300 mg/kg, po administered as single dose measured after 14 days; format: organism-based; settings: in vivo, 336 h, time 14 day
[18] = Acute toxicity in Albino Swiss mouse assessed as macroscopic alterations in liver at 300 mg/kg, po administered as single dose measured after 14 days by H and E staining based analysis; format: organism-based; settings: in vivo, 336 h, time 14 day
[19] = Acute toxicity in Albino Swiss mouse assessed as change in urination volume at 300 mg/kg, po administered as single dose measured after 14 days; format: organism-based; settings: in vivo, 336 h, time 14 day
[20] = Hemolytic activity in human red blood cells type A assessed as hemoglobin release at 500 to 1000 uM incubated for 60 mins by spectrophotometry; format: toxicity, cell-based, Erythrocyte; settings: dose 500-1000 µM, read-out: Activity
[21] = Acute toxicity in Albino Swiss mouse assessed as signs of hyperemia at 300 mg/kg, po administered as single dose measured after 14 days; format: organism-based; settings: in vivo, 336 h, time 14 day
HepG2 = experiment: Cytotoxicity against human HepG2 cells incubated for 24 hrs by MTT assay; format: functional
[22] = Acute toxicity in Albino Swiss mouse assessed as change in relative weight of spleen at 300 mg/kg, po administered as single dose measured after 14 days; format: organism-based; settings: in vivo, 336 h, time 14 day
[23] = Acute toxicity in Albino Swiss mouse assessed as aggressiveness at 300 mg/kg, po administered as single dose measured after 14 days; format: organism-based; settings: in vivo, 336 h, time 14 day
Plasmodium berghei [24] = experiment: Antimalarial activity against Plasmodium berghei ANKA infected in Albino Swiss mouse assessed as half-survival time at 30 mg/kg, po administered for 4 consecutive days measured for 30 days (reference value: 16 day); format: functional; settings: time 30 day
Plasmodium falciparum [25] = experiment: Antimalarial activity against chloroquine-resistant Plasmodium falciparum W2 infected in human erythrocytes assessed as parasite growth inhibition incubated for 48 hrs by geimsa staining based microscopy; format: functional, organism-based; settings: W2, Erythrocyte
[26] = Toxicity in Albino Swiss mouse infected with Plasmodium berghei ANKA assessed as mortality rate at 30 mg/kg, po administered for 4 consecutive days measured for 14 days relative to control; format: organism-based; settings: in vivo, time 14 day, read-out: Activity
[27] = Acute toxicity in Albino Swiss mouse assessed as change in relative weight of kidney at 300 mg/kg, po administered as single dose measured after 14 days; format: organism-based; settings: in vivo, 336 h, time 14 day
Plasmodium falciparum [28] = experiment: Induction of morphological changes in chloroquine-resistant Plasmodium falciparum W2 trophozoites assessed as deteriorated food vacuole by TEM analysis; format: functional, organism-based
[29] = Acute toxicity in Albino Swiss mouse assessed as change in relative weight of liver at 300 mg/kg, po administered as single dose measured after 14 days; format: organism-based; settings: in vivo, 336 h, time 14 day
[30] = Acute toxicity in Albino Swiss mouse assessed as signs of pallor at 300 mg/kg, po administered as single dose measured after 14 days; format: organism-based; settings: in vivo, 336 h, time 14 day
[31] = Acute toxicity in Albino Swiss mouse assessed as contortions at 300 mg/kg, po administered as single dose measured after 14 days; format: organism-based; settings: in vivo, 336 h, time 14 day
[32] = Acute toxicity in Albino Swiss mouse assessed as pathological lesions in liver at 300 mg/kg, po administered as single dose measured after 14 days by H and E staining based analysis; format: organism-based; settings: in vivo, 336 h, time 14 day
[33] = Acute toxicity in Albino Swiss mouse assessed as change in motor function at 300 mg/kg, po administered as single dose measured after 14 days; format: organism-based; settings: in vivo, 336 h, time 14 day
[34] = Acute toxicity in Albino Swiss mouse assessed as signs of cyanosis at 300 mg/kg, po administered as single dose measured after 14 days; format: organism-based; settings: in vivo, 336 h, time 14 day
[35] = Acute toxicity in Albino Swiss mouse assessed as signs of toxicity at 300 mg/kg, po administered as single dose measured after 14 days; format: organism-based; settings: in vivo, 336 h, time 14 day
[36] = Hemolytic activity in human red blood cells assessed as hemoglobin release at 250 to 15.6 uM incubated for 60 mins by spectrophotometry; format: toxicity, cell-based, Erythrocyte; settings: dose 250-15.6 µM, read-out: Activity

## COc1ccc(-c2cn(CCNC3=CC(=O)c4ccccc4C3=O)nn2)cc1
[1]
  Activity: Non-Toxic
[2]
  Activity: Non-Toxic
[3]
  selectivity ratio: 95.8
Plasmodium falciparum [4]
  Activity: Active
Plasmodium falciparum [5]
  Activity: Active
[6]
  Activity: Non-Toxic
[7]
  Activity: Non-Toxic
[8]
  Activity: Non-Toxic
[9]
  logP: 2.72
[10]
  Activity: Non-Toxic
[11]
  selectivity ratio: 68.8
[12]
  Activity: Non-Toxic
Plasmodium falciparum [13]
  Activity: 100%
Plasmodium berghei [14]
  Activity: 33%
[15]
  CC50 at 24 h: 401 µM
[16]
  Activity: Non-Toxic
[17]
  Activity: Non-Toxic
[18]
  Activity: Non-Toxic
[19]
  Activity: Non-Toxic
[20]
  hemolysis at 1 h, up to 1000 µM: > 40%
[21]
  Activity: Non-Toxic
HepG2
  CC50: 289 µM
[22]
  Activity: Non-Toxic
[23]
  Activity: Non-Toxic
Plasmodium berghei [24]
  Survival: 26 days
Plasmodium falciparum [25]
  IC50: 4.2 µM
[26]
  mortality at 336 h: 20%
[27]
  Activity: Non-Toxic
Plasmodium falciparum [28]
  Activity: Active
[29]
  Activity: Non-Toxic
[30]
  Activity: Non-Toxic
[31]
  Activity: Non-Toxic
[32]
  Activity: Toxic
[33]
  Activity: Non-Toxic
[34]
  Activity: Non-Toxic
[35]
  Activity: Non-Toxic
[36]
  hemolysis at 1 h: < 40%

## CC(C)(O)c1cn(CCNC2=CC(=O)c3ccccc3C2=O)nn1
[1]
  Activity: Non-Toxic
[3]
  selectivity ratio: 28.5
[6]
  Activity: Non-Toxic
[7]
  Activity: Non-Toxic
[9]
  logP: 1.38
[10]
  Activity: Non-Toxic
[11]
  selectivity ratio: 35.3
[12]
  Activity: Non-Toxic
[15]
  CC50 at 24 h: 188 µM
[16]
  Activity: Non-Toxic
[17]
  Activity: Non-Toxic
[19]
  Activity: Non-Toxic
[20]
  hemolysis at 1 h, up to 1000 µM: > 40%
[21]
  Activity: Non-Toxic
HepG2
  CC50: 233 µM
[22]
  Activity: Non-Toxic
[23]
  Activity: Non-Toxic
Plasmodium berghei [24]
  Survival: 14 days
Plasmodium falciparum [25]
  IC50: 6.6 µM
[27]
  Activity: Non-Toxic
[29]
  Activity: Non-Toxic
[30]
  Activity: Non-Toxic
[31]
  Activity: Non-Toxic
[33]
  Activity: Non-Toxic
[34]
  Activity: Non-Toxic
[35]
  Activity: Non-Toxic
[36]
  hemolysis at 1 h: < 40%

## Cc1ccc(-c2cn(CCNC3=CC(=O)c4ccccc4C3=O)nn2)cc1
[1]
  Activity: Non-Toxic
[3]
  selectivity ratio: 13.7
[6]
  Activity: Non-Toxic
[7]
  Activity: Non-Toxic
[9]
  logP: 3.12
[10]
  Activity: Non-Toxic
[11]
  selectivity ratio: 6.88
[12]
  Activity: Non-Toxic
[15]
  CC50 at 24 h: 207 µM
[16]
  Activity: Non-Toxic
[17]
  Activity: Non-Toxic
[19]
  Activity: Non-Toxic
[20]
  hemolysis at 1 h, up to 1000 µM: > 40%
[21]
  Activity: Non-Toxic
HepG2
  CC50: 104 µM
[22]
  Activity: Non-Toxic
[23]
  Activity: Non-Toxic
Plasmodium berghei [24]
  Survival: 14 days
Plasmodium falciparum [25]
  IC50: 15.1 µM
[26]
  mortality at 336 h: 100%
[27]
  Activity: Non-Toxic
[29]
  Activity: Non-Toxic
[30]
  Activity: Non-Toxic
[31]
  Activity: Non-Toxic
[33]
  Activity: Non-Toxic
[34]
  Activity: Non-Toxic
[35]
  Activity: Non-Toxic
[36]
  hemolysis at 1 h: < 40%

## O=C1C=C(NCCn2cc(-c3ccccc3)nn2)C(=O)c2ccccc21
[1]
  Activity: Non-Toxic
[3]
  selectivity ratio: 143
[6]
  Activity: Non-Toxic
[7]
  Activity: Non-Toxic
[9]
  logP: 2.67
[10]
  Activity: Non-Toxic
[11]
  selectivity ratio: 343
[12]
  Activity: Non-Toxic
[15]
  CC50 at 24 h: 116 µM
[16]
  Activity: Non-Toxic
[17]
  Activity: Non-Toxic
[19]
  Activity: Non-Toxic
[20]
  hemolysis at 1 h, up to 1000 µM: > 40%
[21]
  Activity: Non-Toxic
HepG2
  CC50: 278 µM
[22]
  Activity: Non-Toxic
[23]
  Activity: Non-Toxic
Plasmodium berghei [24]
  Survival: 13 days
Plasmodium falciparum [25]
  IC50: 0.81 µM
[27]
  Activity: Non-Toxic
[29]
  Activity: Non-Toxic
[30]
  Activity: Non-Toxic
[31]
  Activity: Non-Toxic
[33]
  Activity: Non-Toxic
[34]
  Activity: Non-Toxic
[35]
  Activity: Non-Toxic
[36]
  hemolysis at 1 h: < 40%
